In the supplement of paper PMC10307832:

Legend:
Assay in all cases: relative viability (nuclei count vs DMSO), 5 days (fraction); higher = more cells survive
Ruxolitinib + Alpelisib = compound: N#CC[C@H](C1CCCC1)n1cc(-c2ncnc3[nH]ccc23)cn1 [Ruxolitinib] + Cc1nc(NC(=O)N2CCC[C@H]2C(N)=O)sc1-c1ccnc(C(C)(C)C(F)(F)F)c1 [Alpelisib] (partner 2 µM)
How it was run: (§1)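 Dosing by pin tool came one day after lung cancer cell lines were seeded in 1536-well plates, using either one drug or a fixed anchor-drug dose plus five library-drug doses (not always all listed) in √10 steps. After 5 days, nuclei were counted on 4× images. Relative viability is treated-well nuclei count divided by vehicle-well nuclei count, and values are medians of duplicate plates.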

Ruxolitinib + Crizotinib = compound: N#CC[C@H](C1CCCC1)n1cc(-c2ncnc3[nH]ccc23)cn1 [Ruxolitinib] + C[C@@H](Oc1cc(-c2cnn(C3CCNCC3)c2)cnc1N)c1c(Cl)ccc(F)c1Cl [Crizotinib] (partner 1 µM)
How it was run: as §1

Ruxolitinib + Foretinib = compound: N#CC[C@H](C1CCCC1)n1cc(-c2ncnc3[nH]ccc23)cn1 [Ruxolitinib] + COc1cc2c(Oc3ccc(NC(=O)C4(C(=O)Nc5ccc(F)cc5)CC4)cc3F)ccnc2cc1OCCCN1CCOCC1 [Foretinib] (partner 0.25 µM)
How it was run: as §1

Ruxolitinib + OSI-027 = compound: N#CC[C@H](C1CCCC1)n1cc(-c2ncnc3[nH]ccc23)cn1 [Ruxolitinib] + COc1cccc2cc(-c3nc([C@H]4CC[C@H](C(=O)O)CC4)n4ncnc(N)c34)[nH]c12 [OSI-027] (partner 0.5 µM)
How it was run: as §1

Cell Line	relative viability (Ruxolitinib + Alpelisib; first compound 0.08 µM)	relative viability (Ruxolitinib + Alpelisib; first compound 0.253 µM)	relative viability (Ruxolitinib + Alpelisib; first compound 0.8 µM)	relative viability (Ruxolitinib + Alpelisib; first compound 2.53 µM)	relative viability (Ruxolitinib + Alpelisib; first compound 8 µM)	relative viability (Ruxolitinib + Crizotinib; first compound 0.08 µM)	relative viability (Ruxolitinib + Crizotinib; first compound 0.253 µM)	relative viability (Ruxolitinib + Crizotinib; first compound 0.8 µM)	relative viability (Ruxolitinib + Crizotinib; first compound 2.53 µM)	relative viability (Ruxolitinib + Crizotinib; first compound 8 µM)	relative viability (Ruxolitinib + Foretinib; first compound 0.08 µM)	relative viability (Ruxolitinib + Foretinib; first compound 0.253 µM)	relative viability (Ruxolitinib + Foretinib; first compound 0.8 µM)	relative viability (Ruxolitinib + Foretinib; first compound 2.53 µM)	relative viability (Ruxolitinib + Foretinib; first compound 8 µM)	relative viability (Ruxolitinib + OSI-027; first compound 0.08 µM)	relative viability (Ruxolitinib + OSI-027; first compound 0.253 µM)	relative viability (Ruxolitinib + OSI-027; first compound 0.8 µM)	relative viability (Ruxolitinib + OSI-027; first compound 2.53 µM)	relative viability (Ruxolitinib + OSI-027; first compound 8 µM)
NCI-H2085	0.971	1.02	1.13	0.979	0.822	0.844	0.921	0.857	0.784	0.711	1.03	0.984	1.13	0.797	0.732	0.674	0.633	0.745	0.672	0.647
NCI-H2087	0.951	0.832	1.13	0.769	0.954	0.928	1.07	1	0.919	0.615	1.03	0.983	1.28	0.975	0.772	0.488	0.413	0.585	0.478	0.642
NCI-H2126	0.773	0.767	0.782	0.807	0.789	0.996	1.11	1.02	1.03	0.984	1.09	1.27	1.2	1.12	1.16	0.758	0.664	0.74	0.794	0.689
NCI-H2170	0.891	0.857	0.753	0.821	0.737	1.14	1.23	1.19	1.05	1.1	0.992	0.609	0.602	0.951	0.943	0.659	0.68	0.713	0.567	0.667
NCI-H2228	0.667	0.56	0.773	0.46	0.361	0.63	0.36	0.531	0.492	0.403	0.86	0.911	0.794	0.717	0.429	0.629	0.419	0.743	0.446	0.289
NCI-H2347	0.949	0.999	1.17	0.984	1.19	0.665	0.586	0.764	0.67	0.651	–	0.84	0.856	0.769	1.06	0.438	0.377	0.451	0.397	0.486
NCI-H2405	–	0.715	0.984	0.416	0.465	0.853	0.87	0.984	0.761	0.596	–	1.06	1.17	1.08	0.875	–	0.503	0.684	0.623	0.468
